Laboratory results from the NIST ThermoML archive (doi:10.1021/je900676b).
Numbers after ± are expanded uncertainties.

Assay: heat capacity at constant pressure per volume
Details: 10000 kPa, Liquid, Tian-Calvet differential microcalorimeter

Compound: CCCCCCCCn1cc[n+](C)c1.O=S(=O)([N-]S(=O)(=O)C(F)(F)F)C(F)(F)F
- heat capacity (325 K): 1950000 ± 12000 J/K/m3
- heat capacity (337.36 K): 1964000 ± 12000 J/K/m3
- heat capacity (349.71 K): 1973000 ± 12000 J/K/m3
- heat capacity (362.07 K): 1984000 ± 12000 J/K/m3
- heat capacity (374.43 K): 1993000 ± 12000 J/K/m3
- heat capacity (386.8 K): 2004000 ± 12000 J/K/m3
- heat capacity (399.16 K): 2012000 ± 12000 J/K/m3
- heat capacity (411.52 K): 2018000 ± 12000 J/K/m3
- heat capacity (423.88 K): 2029000 ± 12000 J/K/m3
- heat capacity (436.25 K): 2036000 ± 12000 J/K/m3
- heat capacity (448.61 K): 2049000 ± 12000 J/K/m3
- heat capacity (460.97 K): 2049000 ± 12000 J/K/m3
- heat capacity (473.33 K): 2053000 ± 12000 J/K/m3
- heat capacity (485.69 K): 2056000 ± 12000 J/K/m3
- heat capacity (498.06 K): 2068000 ± 12000 J/K/m3
- heat capacity (510.42 K): 2069000 ± 12000 J/K/m3
- heat capacity (522.79 K): 2084000 ± 13000 J/K/m3
- heat capacity (535.15 K): 2082000 ± 13000 J/K/m3
- heat capacity (547.51 K): 2099000 ± 13000 J/K/m3
- heat capacity (554.94 K): 2098000 ± 13000 J/K/m3

Compound: CCCCCC[n+]1ccn(C)c1.O=S(=O)([N-]S(=O)(=O)C(F)(F)F)C(F)(F)F
- heat capacity (325.02 K): 1953000 ± 12000 J/K/m3
- heat capacity (337.38 K): 1966000 ± 12000 J/K/m3
- heat capacity (349.75 K): 1972000 ± 12000 J/K/m3
- heat capacity (362.12 K): 1982000 ± 12000 J/K/m3
- heat capacity (374.48 K): 1989000 ± 12000 J/K/m3
- heat capacity (386.84 K): 2004000 ± 12000 J/K/m3
- heat capacity (399.19 K): 2009000 ± 12000 J/K/m3
- heat capacity (411.56 K): 2021000 ± 12000 J/K/m3
- heat capacity (423.91 K): 2034000 ± 12000 J/K/m3
- heat capacity (436.27 K): 2038000 ± 12000 J/K/m3
- heat capacity (448.63 K): 2053000 ± 12000 J/K/m3
- heat capacity (460.99 K): 2050000 ± 12000 J/K/m3
- heat capacity (473.35 K): 2051000 ± 12000 J/K/m3
- heat capacity (485.72 K): 2055000 ± 12000 J/K/m3
- heat capacity (498.09 K): 2067000 ± 12000 J/K/m3
- heat capacity (510.46 K): 2066000 ± 12000 J/K/m3
- heat capacity (522.84 K): 2081000 ± 12000 J/K/m3
- heat capacity (535.2 K): 2079000 ± 12000 J/K/m3
- heat capacity (547.56 K): 2096000 ± 13000 J/K/m3
- heat capacity (554.94 K): 2121000 ± 13000 J/K/m3
